In US20240391960A1, “EXTRACELLULAR CYCLOPHILIN INHIBITOR AND USE THEREOF” (PEKING UNIVERSITY SHENZHEN GRADUATE SCHOOL, priority 2021, published 2024):

Experiments:
[1] = Serum blood lipid markers in high-fat diet-induced atherosclerotic mice; format: in vivo; conditions: ApoE-/- mice, 5 mg/kg once a week, 9 weeks
Procedure: A mouse model of atherosclerosis induced by a high-fat diet was established as described in Example 23 and administered in groups, 4MCsA at 5 mg/kg or placebo via tail vein once a week for 9 consecutive weeks, after which the mice were euthanized and serum was collected for routine lipid profile testing.

IL-2 = IL-2 secretion of activated Jurkat cells, ELISA; format: cell-based; conditions: 4MCsA up to 5 μM, 24 h PMA and ionomycin stimulation
Procedure: Meanwhile, the present invention further examined the secretion of IL-2 protein downstream of T-cell activation in which NFAT was involved, and the IL-2 protein content in the culture medium was measured using the ELISA method after 24 h of PMA and ionomycin stimulation.

[2] = Insulin tolerance test (ITT); format: in vivo, mice
Procedure: Insulin signaling response was further measured by performing an insulin sensitivity test (insulin tolerance test, ITT) on each of the two mice in Example 15. After the mice were fasted for 6 hours, insulin (2 U/kg for DB mice and 1 U/kg for HFD mice) was injected intraperitoneally, and then the blood glucose contents were measured at different time points.

insulin = experiment: Basal and glucose-stimulated insulin secretion, ELISA; format: in vivo, mice
Jurkat cells = experiment: High resolution mass spectrometry determination of molecular penetration in Jurkat cells; format: in vitro ADME; conditions: 5 μM compound, 37° C., 2 hours
Description: For direct detection of molecular penetration, intracellular compound concentrations were quantified by an external standard method using a QE-Focus mass spectrometer.
The m/z signal of the corresponding molecule is selected to perform peak extraction on the chromatogram to obtain an ion chromatogram (EIC) corresponding to the extraction of the molecule, and then the concentration of the extract is quantified using the peak area under the curve of the EIC of the cell extract.

[3] = test system: CT26-LUC mouse colon cancer cells; experiment: CT26-LUC mouse colon cancer tumor model; format: in vivo; conditions: Balb/C mice, subcutaneous CT26-LUC, 5 mg/kg, three weeks
Procedure: This example establishes a mouse tumor model to reflect the effect of the drug by measuring the size of the tumor.
CT26-LUC mouse colon cancer cells were inoculated subcutaneously on the dorsal side of Balb/C mice in an amount of […]. Six days later, the tumor size was about 100 mm^3. The simultaneous administration was measured with vernier caliper and the administration dose of 4MCsA was 5 mg/kg. The tumors were measured once every two days and the tumor size was counted. The experiment was terminated after three weeks.

CRP = experiment: Serum CRP in high-fat diet-induced atherosclerotic mice; format: in vivo; conditions: ApoE-/- mice, 5 mg/kg weekly, 9 weeks
Procedure: After successful modeling of atherosclerotic mice, the effect of the compounds on the development of cardiovascular disease was evaluated by assessing the risk of developing cardiovascular disease in the body by measuring CRP levels in the serum of experimental mice given weekly tail vein injections of 5 mg/kg 4MCsA for 9 weeks as described in Example 23.

[4] = Serum ALT, AST in high-fat diet-induced atherosclerotic mice; format: in vivo; conditions: ApoE-/- mice, 5 mg/kg once a week, 9 weeks
Description: Atherosclerosis model in mice was induced and administered as described in Example 25. At the end of the experimental period, the mice were euthanized and serum was taken for determination of ALT and AST contents.

CypA [5] = biological target: T1, CypA (Homo sapiens, UniProt P62937); experiment: PPIase activity, chymotrypsin hydrolysis of N-Succinyl-Ala-Ala-Pro-Phe p-nitroanilide; format: biochemical; conditions: 50 nM CypA, 250 μg/mL chymotrypsin, 80 μM substrate peptide; read-out: IC50, CypA enzymatic activity
Procedure: The effect of inhibitors on CypA enzyme activity was determined using the chymotrypsin hydrolysis of N-Succinyl-Ala-Ala-Pro-Phe p-nitroanilide substrate peptide. […] When catalyzed by proline cis-trans isomerase, its configuration changes from cis to trans, which can be specifically cleaved by chymotrypsin and release p-nitroanilide with maximum absorption around 390 nm. Thus, the stronger the CypA enzyme activity is, the faster the substrate is degraded, and the faster the absorbance at 390 nm increases. Kinetic monitoring was initiated by the addition of 250 μg/mL chymotrypsin and finally, 80 μM of an ultra-dry substrate peptide solution (470 mM LiCL in trifluoroethanol) using a microplate reader with an autosampler after binding to different concentrations of inhibitors using 50 nM CypA.

[6] = Fasting blood glucose and glycated hemoglobin in T2DM mouse models; format: in vivo, mice
Description: To effectively evaluate the effect of the drug on T2DM, this example selected DB mice and high fat diet-induced obese mouse models (HFD mice) as two different predisposing mouse models of type 2 diabetes as subjects.

intracellular CypA = biological target: T2, intracellular CypA (Homo sapiens, UniProt P62937); experiment: Fluorescence competition flow cytometry with CsA-FITC probe in Jurkat cells; format: cell-based; conditions: CsA-FITC labelled Jurkat cells
T2 construct: endogenous in cells; host or cells: Jurkat

IL-8 = experiment: CypA-stimulated IL-8 transcription in THP1 cells, RT-PCR; format: cell-based; conditions: CypA 12 hours, medium with 0.1% BSA
NFAT = NFAT dephosphorylation in PMA/ionomycin activated Jurkat cells, Western blot; format: cell-based; conditions: 1.5 h preincubation, 25 nM PMA and 1 μg/mL ionomycin 2 h
Description: Based on this, the present inventors investigated the effect of molecules on NFAT signal transduction during JurkatT cell activation by ionomycin and PMA. […] After the collection of cells, the dephosphorylation level of NFAT protein was detected by extraction, electrophoresis, transfer printing, and NFAT antibody. Dephosphorylation of NFAT results in two bands, phosphorylated and nonphosphorylated.

[7] = Aortic lesion extent in high-fat diet induced atherosclerotic mice, oil red O; format: in vivo, ApoE gene-deficient C57BL/6J mice; conditions: ApoE-/- mice, Western diet, 5 mg/kg/week tail vein, 9 weeks
Procedure: Five-week-old ApoE gene-deficient C57BL/6J mice were randomly divided into two groups and fed with the Western diet for high-fat induction. From the 7th week, the experimental group received 4MCsA at a dose of 5 mg/kg/week via tail vein injection for 9 weeks. At the end of the experiment, the experimental animals were euthanized, dissected, and perfused with 10 mL of tissue fixative (4% paraformaldehyde) and 10 mL of […] from the right atrial appendage. The aorta was isolated intact under stereoscope and extravascular adherent adipose tissue was dissected with fat forceps. The isolated aorta was stained with oil red O, photographed, and recorded, and the lesion area of the aortic arch in the experimental group and the control group was counted with ImageJ, and the difference was statistically significant.

[8] = Hepatorenal toxicity evaluation, serum ALT, AST, creatinine, urea; conditions: 50 days
THP-1 cells = experiment: Transwell CypA-induced THP-1 cell migration; format: cell-based; conditions: 200 ng/ml CypA, 1 hour
albumin (BSA) = albumin (BSA) (Bos taurus, UniProt P02769); experiment: Albumin cysteine reaction site, bottom-up peptide LC-ESI-MS; conditions: pancreatin digest, peptide GLVLIAFSQYLQQCPFDEHVK
Procedure: The complex of Example 4 was denatured with urea, and the diluted protein sample was added in the proportion of pancreatin:protein=1:50. After enzymatic hydrolysis at 37° C. for 18 h, the peptide sample was desalted using Pierce® Spin Columns (Thermo Fisher) desalting column. The eluate was eluted with 70% acetonitrile, lyophilized, dissolved with 0.1% formic acid in water, and the peptide was analyzed by LC-ESI-MS, and the modified sites were analyzed using BioPharma Finder software (Thermo Fisher).

TNF-a, IL-1β = experiment: Serum inflammatory factors in DB mice, ELISA; format: in vivo; conditions: 42 days of administration
[9] = test system: HEK293 human kidney cells; experiment: MTT cytotoxicity; format: cell-based; conditions: HEK293, medium with 4% BSA, 30 hours, up to 50 μM
CypA [10] = biological target: T1, CypA; experiment: Competitive fluorescence polarization binding assay
Description: Fluorescence polarization (FP) is a widely used technique for measuring ligand-receptor binding in solution systems. Free fluorescent probes in the free state rotate rapidly in the system and the emitted fluorescence is mostly depolarized light. Once the probe binds to a larger molecule, the rotation of the molecule is restricted, and the emission of polarized light increases.

CD8T cells = experiment: CD8 T cell infiltration in the tumor microenvironment, frozen section immunofluorescence; format: in vivo, mice; conditions: tumor frozen sections
Procedure: The thickness of the frozen section is required to be 4-8 μm, place it at room temperature for 30 min after taking it out from −80° C., fix it in acetone at 4° C. for 10 min, wash with PBS, 5 min×3; block with 5-10% normal goat serum (diluted in PBS) and incubate at room temperature for 10 minutes. […] PBS flush, 5 min×3 times; add the appropriately diluted biotin-labeled secondary antibody (diluted in 1% BSA-PBS) dropwise, and incubate at 37° C. for 90-120 minutes; or second-generation horseradish enzyme-labeled streptavidin working solution, incubate at 37° C. or room temperature for 10-30 minutes; the PBS was washed 5 minutes×3 times, mounted and photographed using an inverted fluorescence microscope. Finally, ImageJ was used for statistical analysis.

[11] = Glucose tolerance test (GTT); format: in vivo, mice
CypA [12] = experiment: Serum CypA content in T2DM model mice, ELISA; format: in vivo; conditions: DB diabetic mice, tail vein weekly for 3 weeks
Description: This example examined the effect of drugs on serum CypA contents in mice using db/db genetically engineered mice deficient in leptin receptors (DB mice) as a T2DM model (C57 mice as a healthy control group).

[13] = DB and HFD mice, once weekly tail vein, compared to CsA
[14] = HFD mice, within 36 hours on day 23 of dosing
[15] = HFD mice, within 60 hours on day 17 of dosing

T1 sequence (P62937 whole entry, species assumed): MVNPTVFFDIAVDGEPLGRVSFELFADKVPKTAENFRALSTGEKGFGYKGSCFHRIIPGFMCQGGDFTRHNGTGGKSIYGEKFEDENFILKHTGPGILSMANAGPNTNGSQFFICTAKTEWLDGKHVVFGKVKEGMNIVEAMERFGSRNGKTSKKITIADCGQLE
T2 sequence (P62937 whole entry): as the sequence (P62937 whole entry, species assumed) above
Chain of albumin (BSA) (P02769 25-607): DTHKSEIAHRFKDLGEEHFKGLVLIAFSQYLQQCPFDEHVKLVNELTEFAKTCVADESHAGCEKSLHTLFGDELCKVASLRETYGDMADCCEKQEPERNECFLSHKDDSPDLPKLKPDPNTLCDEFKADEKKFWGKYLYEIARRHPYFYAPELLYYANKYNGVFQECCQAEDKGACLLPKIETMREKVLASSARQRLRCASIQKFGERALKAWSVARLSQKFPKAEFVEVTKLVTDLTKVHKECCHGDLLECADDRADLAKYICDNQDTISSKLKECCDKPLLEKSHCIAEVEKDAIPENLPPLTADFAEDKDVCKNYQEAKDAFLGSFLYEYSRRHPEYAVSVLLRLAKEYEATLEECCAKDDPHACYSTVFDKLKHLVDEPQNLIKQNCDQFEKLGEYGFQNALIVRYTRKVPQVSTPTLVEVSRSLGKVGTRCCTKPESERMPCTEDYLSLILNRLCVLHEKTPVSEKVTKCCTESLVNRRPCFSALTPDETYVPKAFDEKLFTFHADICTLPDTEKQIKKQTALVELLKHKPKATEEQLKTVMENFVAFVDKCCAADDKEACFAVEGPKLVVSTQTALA

CC=CCC(C)C(O)C1C(=O)NC(CC)C(=O)N(C)CC(=O)N(C)C(CCCCNC(=O)CCCCCN2C(=O)C=CC2=O)C(=O)NC(C(C)C)C(=O)N(C)C(CC(C)C)C(=O)NC(C)C(=O)NC(C)C(=O)N(C)C(CC(C)C)C(=O)N(C)C(CC(C)C)C(=O)N(C)C(C(C)C)C(=O)N1C (stereo not shown) [Compound 4MCsA]
HDL-C content [1]: increased | TC content [1]: no significant effect | TC/HDL-C [1]: significantly reduce | TG content [1]: no significant effect | serum LDL-C content [1]: significantly decreased | secretion of IL-2 (IL-2): hardly affected | dose dependence of the effect on ITT ([2]; DB mice, 1 and 5 mg/kg/week): dose-dependent | insulin sensitivity (ITT) ([2]; DB mice, insulin 2 U/kg i.p.): significantly improved | ITT AUC compared with CsA ([2]; HFD mice): lower AUC | insulin resistance caused by obesity (ITT) ([2]; HFD mice, insulin 1 U/kg i.p.): attenuated insulin resistance | basal level of insulin (insulin; DB mice): little effect | glucose-stimulated insulin secretion vs DB ctrl (insulin; DB mice): no significant difference | glucose-stimulated insulin secretion vs C57 ctrl (insulin; healthy C57 mice): increased | Intracellular conc. (μM) (Jurkat cells): not detected | tumor size [3]: certain antitumor effect | CRP content in the serum (CRP): very significantly reduce | activity of ALT in the serum [4]: no significant change | activity of AST in the serum [4]: no significant change | IC50 (CypA [5]): 22.6 ± 4.3 nM | fasting blood glucose [6, 13]: significantly decreased | glycated hemoglobin contents [6, 13]: decreased | fasting blood glucose vs C57 ctrl ([6]; normal C57 mice, 5 mg/kg/week, after 5 weeks): comparable to the normal group | effect on the intracellular fluorescence signal (intracellular CypA): very little effect | eCypA-increased transcription level of mRNA of IL-8 (IL-8): significantly inhibited | NFAT dephosphorylation induced by PMA and ionomycin (NFAT): no significant effect | lesion area of the aortic arch vs control group [7]: significantly reduced | ALT level ([8]; C57 healthy mice): remained close to those of healthy controls | AST level ([8]; C57 healthy mice): remained close to those of healthy controls | urea level ([8]; C57 healthy mice): remained close to those of healthy controls | creatinine level between groups ([8]; DB mice): no difference | hepatorenal toxicity (ALT, AST) ([8]; DB mice): not further enhanced | urea level between groups ([8]; DB mice): no difference | migration activity promoted by CypA (THP-1 cells): significantly abolished | modification site on BSA (albumin (BSA)): Cys34 | level of IL-1β (TNF-a, IL-1β): significantly reduce | level of TNF-a (TNF-a, IL-1β): significantly reduce | cytotoxicity, cell survival by MTT [9]: little cytotoxicity | Ki (CypA [10]; 50 nM CypA, 20 nM CsA-FITC probe): 198 ± 17 nM | infiltration of CD8T cells in the tumor microenvironment (CD8T cells): promote the infiltration | GTT AUC ([11]; C57 healthy mice): less than that in CsA group | GTT area under the curve (AUC) ([11]; DB mice, 5 mg/kg group vs Ctrl): significantly reduced | glucose tolerance status (GTT) ([11]; DB mice, 5 mg/kg, after 5 weeks, glucose 1 g/kg i.p.): significantly improved | GTT [11, 14]: significant improvement | GTT AUC [11, 14]: significant decrease | GTT [11, 15]: remained significantly improved | GTT AUC [11, 15]: significantly reducing | blood CypA contents (CypA [12]): decreased

CCC1NC(=O)C(C(O)C(C)CC=Cc2ccc(C(=O)NCCOCCNC(=S)Nc3ccc(-c4c5ccc(=O)cc-5oc5cc(O)ccc45)c(C(=O)O)c3)cc2)N(C)C(=O)C(C(C)C)N(C)C(=O)C(CC(C)C)N(C)C(=O)C(CC(C)C)N(C)C(=O)C(C)NC(=O)C(C)NC(=O)C(CC(C)C)N(C)C(=O)C(C(C)C)NC(=O)C(CC(C)C)N(C)C(=O)CN(C)C1=O (stereo not shown) [CsA-FITC, reference compound]
proportion of fluorescent cells (intracellular CypA): 95.30% | Kd (CypA [10]; fluorescence polarization, probe itself, read-out: binding constant Kd with CypA): 14.8 ± 0.7 nM
